In patent US7169815B2, “3-methoxybenzyl thiourea derivatives and improved lipid compositions containing same” (The United States of America as represented by the …, priority 2000, dated 2007):
In brackets after ≈: the same amount, converted by molar mass. Like-named read-outs stand apart in the source and are kept apart here.

What was measured:
[1] = tested on: Brine Shrimp (Artemia Salina); assay: in vivo; conditions: for LC50: in vivo
Procedure: (§1) Brine shrimp eggs (Artemia salina) were obtained from Brine Shrimp Direct, Ogden, Utah and stored at 10° C. until used. Eggs (400 mg) were added to 1 l of deionized water containing 40 g of sea salts (Sigma Chemical Co., St. Louis, Mo.).
(§2) Serial dilutions were performed in 100 μl of seawater in triplicate in the wells of a 96-well microplate to give appropriate concentrations. Control wells for both water and DMSO were included with each experiment. […] The number of non-motile, and the total number of, naupli were counted in each well using a binocular microscope (10×).

[2] = Oxidative Stability Index (OSI) of refined meadowfoam seed oil plus additives
Source text: A presently preferred method of determining oxidative stability of lipids and oils employs the Oxidative Stability Index (OSI), which determines the oxidative stability of an oil by passing air through a sample under stringent temperature control. (Firestone, Oxidative Stability Index (OSI): Official Methods of Recommended Practices of the American Oil Chemists' Society (AOCS), 4th Ed. American Oil Chemists Society, Champaign, Ill., AOCS Official Method Cd 12b-92, 1993.) In this method, a stream of air is passed through the oil sample, which aids in the rapid degradation of the triglyceride into volatile organic acids. The air stream flushes the volatile acids from the oil into a conductivity cell containing water where the acids are solubilized. These acids, once dissolved in the water solution, disassociate into ions, thus changing the conductivity of the water. Therefore, a continuous measure of the conductivity of the cell by computer will indicate when a rapid rise in the conductivity occurs that corresponds to the induction point, oxidative failure of the sample. The time to the induction point is the OSI time. […] Saturated fatty acid methyl ester (FAME) standards commercially available from Alltech Associates (Deerfield, Ill.) may be used to calibrate the OSI determinations.
OSI determinations may be performed on an oxidative stability instrument manufactured by Omnion (Rockland, Mass.) using the AOCS method described in the above-disclosed Firestone reference. Lipid or oil samples may be run at 110° C. and FAMEs may be tested at 90° C., with air flow set at 35 kPa with a resulting velocity of about 140 ml/min. A presently preferred method for determining OSI values is described by T. A. Isbell et al., “Oxidative Stability Index of Vegetable Oils in Binary Mixtures with Meadowfoam Oil,” Industrial Crops and Products 9, 115–123 (1999).
Unless otherwise stated, Oxidative Stability Index (OSI) values were determined on 5.00 ±0.05 g lipid or oil samples in triplicate according to AOCS Official Method Cd 12b-92 (AOCS, 1993) at 90° C., 110° C. and/or 130° C. on an oxidative stability instrument manufactured by Omnion (Rockland, Mass.). Details of the procedure have been published by Isbell et al., “Oxidative Stability Index of Vegetable Oils in Binary Mixtures with Meadowfoam Oil,” Ind. Crops Prod. 9, 115–123 (1999). When compounds of the present invention were added to the lipid or oil sample being tested, the compounds (0.1% to 1.0% by weight) were added to the test lipid or oil (20 g) and dissolved or dispersed at room temperature before triplicate 5.00 g samples of lipid or oil with an added compound of the invention were weighed into the OSI test tube.
The 1,3-di(3-methoxybenzyl) thiourea prepared in Example 3 was mixed at 0.1%, 0.5% or 1.0% with refined meadowfoam seed oil (Lot #CW-4551, The Fanning Corp) and the oxidative stability of the mixtures was compared to that of refined meadowfoam seed oil at 130° C. The OSI times were 49.8 h, 159 h and 172 h, respectively, for the mixtures containing the thiourea compared to an OSI time of 14.9 h for this lot of refined meadowfoam seed oil with no additives at 130° C.
Thus, 1,3-bis(2-methoxyphenyl)-2-thiourea (Aldrich Chem Co.) added at 0. […] Likewise, 1,3-bis(3-methoxyphenyl)-2-thiourea at 0. 1% added to refined meadowfoam oil gave an OSI time of 27.0 h, an […] lower value than for the 1,3-di-(3-methoxybenzyl) thiourea produced in Example 3.

[3] = Solubility in refined meadowfoam seed oil (HPLC); format: physicochemical; conditions: oil or lipid, thermodynamic from solid, cooled to room temperature overnight
Procedure: Typical retention times were 7–9 min for the thioureas. Samples were weighed accurately (about 0.1 g) into 1.00 g of refined meadowfoam seed oil and heated to temperature (either 30° C. or 50° C.) for 4 h with occasional shaking. The samples were cooled to room temperature overnight, centrifuged and 0.3 g of the supernatant oil was removed and diluted with 1 ml CHCl3 for testing.

in vivo = conditions: Artemia salina (brine shrimp), in vivo; for LC50 at 24 h: other: exposure in seawater in microplate wells
Procedure: as §1, §2

[4] = UVB and UVA molar absorptivities in chloroform; format: physicochemical; conditions: 0.01 mg/ml in chloroform; for UVBMAX Molar Absorptivity: Amax in 280–320 nm; for UVAMAX Molar Absorptivity: Amax in 320–400 nm
Procedure: The compounds synthesized in Example 3 were tested to determine their ability to absorb […] UVA light. UV spectra of quantitatively weighed and diluted samples (0.01 mg/ml) in chloroform were scanned from 244–450 nm at 240 nm/min on a Beckman DU 640 spectrophotometer (Beckman Coulter, Inc., Fullerton, Calif.). Amax in the 280–320 nm range was determined and converted to molar absorptivity for the UVB region, and Amax in the 320–400 nm range was determined and converted to molar absorptivity for the UVA region.

[5] = Oxidative Stability by Rotating Pressure Vessel (RBOT) of refined meadowfoam seed oil plus thiourea compounds; conditions: Refined Meadowfoam Seed Oil plus 0.1% compound
Source text: Another presently preferred method of determining oxidative stability of lipids and oils employs the Oxidative Stability by Rotating Pressure Vessel (RBOT) test. In this test, oxidative stability, determined according to the ASTM D2272-98 test method (ASTM, 2001, “Standard Test Method for Oxidation Stability of Steam Turbine Oils by Rotating Pressure Vessel,” in Book of Standards, Vol. 05.01., American Society for Testing and Materials, West Conshohocken, Pa.), measures the time for oxygen pressure to decrease in a closed stainless steel vessel containing a lipid or oil when heated with a copper coil catalyst. Oxygen taken up by the lipid or oil during the reaction is an indication of oil degradation.
In these experiments, Oxidative Stability by Rotating Pressure Vessel (RBOT) tests were performed with different 3-methoxybenzyl thiourea compounds synthesized in Example 3 that were mixed in different quantities with different mono- and polyunsaturated vegetable oils. Hexane was used to clean and store the copper coils, but all other aspects of the Oxidative Stability by Rotating Pressure Vessel (RBOT) test were the same as in the standard ASTM D2272–98 test method (ASTM, 2001, “Standard Test Method for Oxidation Stability of Steam Turbine Oils by Rotating Pressure Vessel,” in Book of Standards, Vol. 05.01., American Society for Testing and Materials, West Conshohocken, Pa.).

[6] = Decomposition temperature by differential scanning calorimetry; format: physicochemical; conditions: DSC, onset of decrease in slope of temperature-heat flow curve; unit not given (scans in ° C.)
Procedure: A dual cell Perkin Elmer differential scanning calorimeter (PE DSC 7, Norwalk, Conn.) was used to determine the thermal transitions of the compounds. All scans were carried out from 30° C. to 200° C. at a heating and cooling rate of 10° C./minute and 40° C./min, respectively, except for 1-(3-methoxybenzyl)-3-(1-propenyl) thiourea, for which the scans were carried out from 0° C. to 200° C. at a heating rate of 10° C./min, and 1-(3-methoxybenzyl)-3-octadecyl thiourea, for which both the heating and cooling rates were 10° C./min. 1,3-di(3-methoxybenzyl) thiourea and 1-(3-methoxybenzyl)-3-dodecyl thiourea were heated to 300° C., and 1-(3-methoxybenzyl)-3-(4-methoxybenzoyl) thiourea was heated to 250° C. to determine the decomposition temperature. The decomposition temperature was taken as the onset of a decrease in the slope of the temperature-heat flow DSC curve. The first heating curve was recorded in all cases, and liquid nitrogen was used to quench the samples after the first heating.

[7] = Behaviour on addition of water to DMSO solution (sample preparation); format: physicochemical; conditions: dissolved in 50 μl DMSO, water added to make 1 mg/ml
Procedure: Test compounds (1–2 mg) were originally made up at a concentration of 1 mg/ml in artificial seawater, except for water insoluble compounds, which were dissolved in 50 μl of dimethyl sulfoxide (DMSO) prior to adding enough water to make a 1 mg/ml solution. Serial dilutions were performed in 100 μl of seawater in triplicate in the wells of a 96-well microplate to give appropriate concentrations. Control wells for both water and DMSO were included with each experiment. A 100 μl solution of naupli (10–30) was added to each well, and the covered plate was incubated for 24 h at 27° C. The number of non-motile, and the total number of, naupli were counted in each well using a binocular microscope (10×). LC50 values were then calculated by Probit analysis (Finney, D. J., 1971, “Probit Analysis,” 3rd Ed.; University Press: Cambridge [Eng.]).

[8] = refined meadowfoam seed oil plus additive 0.1%, 130° C.
[9] = refined meadowfoam seed oil plus additive 0.5%, 130° C.
[10] = refined meadowfoam seed oil plus additive 1.0%, 130° C.
[11] = refined meadowfoam oil, 0.1% additive, 130° C.
[12] = refined meadowfoam oil, 0.1% additive, 130° C. (Example 8)
[13] = heated to 30° C. for 4 h, read-out: Solubility at 30° C.
[14] = heated to 50° C. for 4 h, read-out: Solubility at 50° C.

COc1ccc(O)c(C(C)(C)C)c1 [butylated hydroxy aniline (BHA), butylated hydroxy aniline, reference compound]
LC50 [1]: 12.2 µg/mL (≈ 67.7 µM)

COc1cccc(CN)c1 [3-methoxybenzyl amine]
OSI Time [2, 8]: 22.9 h | OSI Time [2, 9]: 27.3 h | OSI Time [2, 10]: 32.6 h

COc1cccc(C=O)c1 [3-methoxybenzaldehyde]
OSI Time [2, 8]: 17.5 h | OSI Time [2, 9]: 17.4 h | OSI Time [2, 10]: 18.9 h

COc1ccccc1NC(=S)Nc1ccccc1OC [1,3-bis(2-methoxyphenyl)-2-thiourea]
OSI time lower than for 1,3-di-(3-methoxybenzyl) thiourea [2, 11]: 34% | OSI Time [2, 12]: 37.1 h

COc1cccc(CN=C=S)c1 [3-methoxybenzyl isothiocyanate]
OSI Time [2, 8]: 19.1 h | OSI Time [2, 9]: 22.9 h | OSI Time [2, 10]: 24.0 h

C=CCNC(=S)NCc1cccc(OC)c1
solubility at 4 h [3, 13]: 1670 µg/mL (≈ 7070 µM) | solubility at 4 h [3, 14]: 981 µg/mL (≈ 4150 µM) | LC50 (in vivo): 232 µg/mL (≈ 982 µM) | toxicity against brine shrimp, in words ([1]; as Table 7 shows): low toxicity | UVBMAX Molar Absorptivity [4]: 2852 | UVAMAX Molar Absorptivity [4]: 0.0 | Oxidative Stability (RBOT) [5]: 24 min | Decomposition Temperature [6]: > 200 °C

COc1cccc(CNC(=S)NCc2ccccc2)c1 [1-(3-methoxybenzyl)-3-benzyl thiourea]
solubility at 4 h [3, 13]: 1050 µg/mL (≈ 3670 µM) | solubility at 4 h [3, 14]: 1040 µg/mL (≈ 3620 µM) | LC50 at 24 h (in vivo): 31.6 µg/mL (≈ 110 µM) | UVBMAX Molar Absorptivity [4]: 2357 | UVAMAX Molar Absorptivity [4]: 0.0 | Oxidative Stability (RBOT) [5]: 26 min | Decomposition Temperature [6]: > 200 °C

COc1cccc(CC#N)c1 [3-methoxyphenyl acetonitrile]
OSI Time [2, 8]: 18.6 h | OSI Time [2, 9]: 19.2 h | OSI Time [2, 10]: 19.9 h

O=C1O[C@H]([C@@H](O)CO)C(O)=C1O [ascorbic acid, reference compound]
LC50 at 24 h (in vivo): 315 µg/mL (≈ 1790 µM)

O=C(O)/C=C/c1ccccc1 [trans-cinnamic acid, reference compound]
UVBMAX Molar Absorptivity [4]: 22350 | UVAMAX Molar Absorptivity [4]: 54

COc1cccc(NC(=S)Nc2cccc(OC)c2)c1 [1,3-bis(3-methoxyphenyl)-2-thiourea]
OSI time lower than for 1,3-di-(3-methoxybenzyl) thiourea [2, 11]: 84% | OSI Time [2, 12]: 27.0 h

Cc1c(C)c2c(c(C)c1O)CC[C@@](C)(CCC[C@H](C)CCC[C@H](C)CCCC(C)C)O2 [D-α-tocopherol, reference compound]
LC50 [1]: >1000 µg/mL

COc1ccc(C(=O)NC(=S)NCc2cccc(OC)c2)cc1 [1-(3-methoxybenzyl)-3-(4-methoxybenzoyl) thiourea]
solubility at 4 h [3, 13]: 2760 µg/mL (≈ 8350 µM) | solubility at 4 h [3, 14]: 1930 µg/mL (≈ 5830 µM) | LC50 at 24 h (in vivo): 58 µg/mL (≈ 176 µM) | UVBMAX Molar Absorptivity [4]: 34090 | UVAMAX Molar Absorptivity [4]: 1420 | Oxidative Stability (RBOT) [5]: 24 min | Decomposition Temperature [6]: > 200 °C

CCCCCCCCCCCCCCCCCCNC(=S)NCc1cccc(OC)c1 [1-(3-methoxybenzyl)-3-octadecyl thiourea]
solubility at 4 h [3, 13]: 280 µg/mL (≈ 624 µM) | solubility at 4 h [3, 14]: 147 µg/mL (≈ 328 µM) | LC50 at 24 h (in vivo): 62.5 µg/mL (≈ 139 µM) | UVBMAX Molar Absorptivity [4]: 850 | UVAMAX Molar Absorptivity [4]: 0.0 | behaviour upon the addition of water [7]: precipitated out of solution | Oxidative Stability (RBOT) [5]: 15 min | Decomposition Temperature [6]: > 200 °C
